Numbered stars: 1 amine (or outer) side, 2 acyl side, 3 side chain; on linkers, the order of the positions; unused ones are H or OH. Bridge positions count the residues as written; N and C are the ends. Square brackets hold non-standard residues; d marks the D form. Peptide text beside a SMILES is read from it. Nle(6-ylidene) = O=C([C@H](CCCC=[*:3])N[*:1])[*:2]
Experiments:
[1] = test system: carboxy peptidase; assay: Decomposition by carboxy peptidase (resistance to peptidase); type: in vitro ADME; conditions: carboxy peptidase (isolated enzyme, SIGMA); enzyme solution 1 U/ml in PBS, peptide 0.2 mg/ml, 37° C., HPLC; time at which half of the peptide was decomposed; read-out: half period by carboxy peptidase (t1/2) (converted)
Procedure: (§1) Resistance to a peptidase of a peptide of the present invention was investigated using a carboxy peptidase and chymotrypsin. Resistance to a peptidase was measured as described below.
(Decomposition by Carboxy Peptidase)
A carboxy peptidase purchased from SIGMA was treated with PBS to prepare an enzyme solution of 1 U/ml, which was then kept warm at 37° C. in a water bath. Then, a peptide solution having a concentration adjusted to 5 mg/ml with DMSO: pure water=1:1 mixed solvent was treated with PBS(−) to obtain a concentration of 1 mg/ml, and the enzyme solution and the peptide solution were mixed at 4:1 so as to give a peptide final concentration of 0.2 mg/ml. Thereafter, these were reacted quickly at 37° C. With time, the reaction solution was sampled each in an amount of 0.1 ml, and a reaction stopping solution (25% TFA in acetonitrile, 20 μL) was added to stop the reaction. Samples were analyzed by HPLC, and decomposition of a peptide by the peptidase was measured. […] Time at which half of the peptide added was decomposed was measured.

[2] = target: T1, chymotrypsin (Bos taurus, UniProt P00766); assay: Decomposition by chymotrypsin (resistance to peptidase); type: in vitro ADME; conditions: chymotrypsin (isolated enzyme, SIGMA), pH 8; enzyme solution 4 U/ml in 0.1M Tris-HCl (pH8.0), peptide 0.2 mg/ml, 37° C., HPLC; read-out: half period by chymotrypsin (t1/2)
T1 construct: purchased SIGMA
Procedure: as §1
(Decomposition by Chymotrypsin)
Chymotrypsin purchased from SIGMA was treated with 0.1M Tris-HCl (pH8.0) to prepare an enzyme solution of 4 U/ml, which was then kept warm at 37° C. in a water bath. Then, a peptide solution treated with DMSO: pure water=1:1 to obtain a concentration of 5 mg/ml was treated with 0.1M Tris-HCl (pH8.0) to give a concentration of 1 mg/ml, and the enzyme solution and the peptide solution were mixed at 4:1 so as to give a peptide final concentration of 0.2 mg/ml. Thereafter, these were reacted quickly at 37° C. With time, the reaction solution was sampled each in an amount of 0.1 ml, and a reaction stopping solution (25% TFA in acetonitrile, 20 μL) was added to stop the reaction. Samples were analyzed by HPLC, and decomposition of a peptide by chymotrypsin was measured. Sampling was conducted at 0, 0.5 minutes, 1 minute and 2 minutes, and when decomposition of 50% or more was not obtained at 2 minutes, sampling was conducted further at 0.5 hours, 1 hour, 3 hours, and time at which half of the peptide added was decomposed was measured.

Row | Compound | half-life at 0.2 mg/ml [1] | half-life at 0.2 mg/ml [2]
1 | CC(C)C[C@@H]1NC(=O)[C@H](Cc2ccc(O)cc2)NC(=O)[C@H](CCC(N)=O)NC(=O)[C@H](CO)NC(=O)[C@H](Cc2c[nH]c3ccccc23)NC(=O)[C@@H](NC(=O)[C@@H](N)Cc2ccc(O)cc2)CCC/C=C\CCC[C@@H](C(=O)N[C@@H](Cc2ccc(O)cc2)C(=O)O)NC1=O [Comp. 3] (H-Y[Nle(6-ylidene)]WSQYL[Nle(6-ylidene)]Y-OH; staple (Z) 2-8) | 79 h | 2.07 min
2 | CC(=O)N1CCCC[C@@H](C(=O)N[C@@H](Cc2ccc(O)cc2)C(=O)O)NC(=O)[C@H](CC(C)C)NC(=O)[C@H](Cc2ccc(O)cc2)NC(=O)[C@H](CCC(N)=O)NC(=O)[C@H](CO)NC(=O)[C@H](Cc2c[nH]c3ccccc23)NC(=O)CN(C(=O)[C@@H](N)Cc2ccc(O)cc2)CCCC1 [Bdev-19] | 0.0495 h | 0.97 min

From patent US10633418B2, “Cross-linked peptides containing non-peptide cross-linked structure, method for synthesizing cross-linked peptides, and novel organic compound used in method” (JITSUBO Co., Ltd., priority 2011, dated 2020)
